Like-named read-outs stand apart in the source and are kept apart here. Starred links: 1 amine or outer side, 2 acyl side, 3 side chain; linkers in the order of their positions; H or OH if unused. Non-standard residues stand in square brackets, D forms with d. Residues, ends and D or L forms follow the SMILES beside them. *: point of attachment. azaTyr = O=C(N(Cc1ccc(O)cc1)N[*:1])[*:2]; azaPhe = O=C(N(Cc1ccccc1)N[*:1])[*:2]; azaLeu = CC(C)CN(N[*:1])C(=O)[*:2]; Hydrocinnamoyl = O=C(CCc1ccccc1)*; X1 = O=C(N(CC1CCCCC1)N[*:1])[*:2]; azaPro = O=C(N1CCCN1[*:1])[*:2]

The results in this text go back to patent US9708370B2, “Azapeptides as CD36 binding compounds” (VALORISATION-RECHERCHE, LIMITED PARTNERSHIP, priority 2007, dated 2017).

The target of one experiment is CD36 (Rattus norvegicus (Rat), UniProt Q07969). Put plainly: CD36 receptor covalent photolabelling binding assay, competition with [125I]Tyr-Bpa-Ala-hexarelin on rat cardiac membranes. On the procedure: The hearts from Sprague Dawley rats (300 g-325 g) from Charles River, used as a source of cardiac membranes, were prepared as follows: the heart was washed with ice-cold saline, and fatty and connective tissue was removed. The tissue was cut into small pieces with scissors and placed in a Sorvall centrifuge tube containing 5 ml/g of fresh tissue of Buffer A (10 mM NaHCO3, 5 mM NaN3, 10 μM Pefabloc, 0.1 μM Aprotinin, 1 μM Pepstatin A, 1 μM Leupeptin, pH 7.0). The suspension was homogenized with a Polytron at low speed, 3×15 sec. The homogenate was centrifuged at 8 700×g for 20 min and the supernatant was put on ice. The pellet was resuspended and homogenized with a Glass-teflon Potter by 5 strokes. The homogenate was centrifuged at 8 700×g for 10 min and this supernatant was combined with the first supernatant. The supernatant fluid was centrifuged at 35 000×g for 20 min, yielding a second pellet fraction that was suspended thoroughly in a glass homogenizer with a Teflon pestle in 20 ml/g of fresh tissue of Buffer B (20 mM Tris-maleate, 0.6M KCl, pH 6.8). The resulting suspension was centrifuged again at 35 000×g for 60 min. The third pellet fraction was resuspended thoroughly in a glass homogenizer with a Teflon pestle in 20 ml/g of fresh tissue of Buffer C (10 mM Tris/HCl buffer pH 7.4) followed with another centrifugation at 35 000×g for 60 min. The harvested precipitate was then suspended in a small volume (1-2 ml/g of fresh tissue) of 50 mM Tris/HCl buffer pH 7.4) containing 2 mM EGTA. The resulting membrane preparation was frozen at −80° C. Protein concentration was determined with bicinchoninic acid (BCA) method, using BSA as standard.
The iodination procedure was performed in the darkness. […] The reaction was started by adding 5 ul (3 nmol) of H2O2. The incubation was carried out at 22° C. for 5 min. The addition of H2O2 was repeated twice with 5 min incubation each time. The reaction was stopped with the addition of 1.4 ml of 0.1% TFA. The iodinated peptide was purified on a reverse-phase Vydac C18 column with a 60 min linear gradient (1 ml/min) from 20% to 50% acetonitrile (90%) in 0.1% TFA (10%).
Nonspecific binding was defined as binding not displaced by 50 μM corresponding peptide. All peptide containing solutions were diluted in Buffer B. Buffer A and B were degassed under vacuum, and used in capped tubes in order to minimize lipid peroxydation. Before the incubation period, all tubes were put under a low flow of nitrogen. All material was kept on ice and the binding assay was performed in darkness. After an incubation period of 60 min at 22° C. […] After centrifugation at 12 000×g for 15 minutes, the pellets were resuspended in 150 μl of sample buffer (62 mM Tris-HCl, pH 6.8, 2% SDS, 10% glycerol, 15% 2-mercapto-ethanol, and 0.05% bromophenol blue), and boiled for 5 min prior to being subjected to electrophoresis. Proteins (200 μg/100 μl) were separated on 7.5% SDS-PAGE (45 V overnight). The gels resulting from SDS/PAGE were fixed, colored in Coomassie Brilliant Blue R-250, dried, exposed to a storage phosphor intensifying screen (Amersham Biosciences), and analysed by using a Typhoon PhosphorImager (Amersham Biosciences) and ImageQuant 5.0 software to establish competition curves. Protein bands were quantified by densitometry. The covalent binding signal of 87 kDa was analyzed by densitometry using Typhoon Phospholmager™ (Typhoon, Amersham Biosciences) and ImageQuant 5.0® software to set competition curves.
Specific binding activities were defined as the ratio of the density of the protein band to that of a non-specific band. Results are expressed as the percentage of the density of the […] to that of the total binding band.

For the next experiment, the target named is human GHS-R1a (Homo sapiens (Human), UniProt Q92847). Put plainly: GHS-R1a binding assay, competition with 125I-ghrelin on membranes of LLC-PK1 cells expressing human GHS-R1a. As to the method: Rat ghrelin was radio iodinated with Na^125I using the lodo-Beads iodination reagent (Pierce #28665). Briefly, an lodo-bead was incubated with 2 mCi of Na^125I (Amersham) in 100 μL of 50 mM sodium phosphate buffer, pH 7.0 for 5 min at 22° C. The reaction was started by adding 20 nmol of the peptide (1 mM in 0.1 M acetic acid). The tube was incubated for 10 min at 22° C. The iodination was terminated by adding 1 mL of 0.1% TFA. The mono-iodinated peptide was purified by reverse-phase HPLC using a Vydac C18 ([…]) column (30 cm×0.39 cm) in combination with a binary elution system of (A) 0.1% TFA in H2O and (B) 0.1% TFA, 10% H2O, 90% acetonitrile. Fractions of 0.5 mL were collected and analyzed by its radioactive content.
Cells (1.4×10^6) were plated in 100 mm plates and transfected 24 h later with pCDNA3.1-hGHS-R1a (UMR cDNA Resource Center #GHSR0A0000) following the CaHPO4 precipitation method. Briefly, 40 μg of plasmid DNA was diluted in 500 μL of sterile H2O and added to an equal volume of a 4× CaCl2, pH 7.9 solution (2 mM Tris-HCl, 0.2 mM EDTA, 500 mM CaCl2). The mixture was then added slowly with air bubbles to 1 mL of 2× Hepes-buffered saline, pH 7.1 (50 mM Hepes, 280 mM NaCl, 1.5 mM Na2HPO4). After 30 min at room temperature, 1 mL was distributed evenly over the cells and let overnight. The medium was changed the next morning and the membrane preparation was made two days later.
Cells were washed twice with PBS and once with ice-cold homogenization buffer (50 mM Tris-HCl, pH 7.3, 5 mM MgCl2, 2.5 mM EDTA, 30 μg/ml bacitracin). Cells were scraped and harvested in 1.5 mL tubes. Cells were then lysed by temperature shock with two freeze/thaw cycles in liquid nitrogen. The tubes were centrifuged at 14000 g for 20 min. Pellets were resuspended in homogenization buffer and stored at −80° C. until used. Total protein concentrations were determined with the BCA protein assay kit (Pierce).
Competition experiments were performed by incubating 50 μg of LLC-PK1 membranes expressing human GHS-R1a with 15 fmol of ^125I-Ghrelin and increasing concentrations of unlabeled ghrelin or with increasing concentrations of azapeptides derivatives in 0.5 mL of binding buffer. Bound radiolabelled ligand was separated from free by filtration on Whatman GF/C filters pretreated with a 1% polyethylenimine solution. Filters were washed with 2×3 mL of washing buffer (50 mM Tris-HCl, pH 7.3, 10 mM MgCl2, 2.5 mM EDTA, 0.015% Triton X-100). Filters were counted in a LKB gamma counter. Curves were analyzed using Prism software (GraphPad Software Inc).

Where [1] appears, read: Table 6, read-out: IC50 Binding CD36.
Where [2] appears, read: Table 5, read-out: IC50 Binding GHS-R1a.
[3] abbreviates: Table 3, rat cardiac membranes, [125I]Tyr-Bpa-Ala-hexarelin as radioligand, read-out: IC50, binding affinity of aza peptide derivatives towards CD36.
Setting [4] is: Table 4, LLCPK-1 membranes overexpressing GHS-R1a, radioiodinated (1-28) rat ghrelin as tracer, read-out: EC50 (text: IC50 values from competition curves in GHS-R1a radioreceptor assay).

Chain of human GHS-R1a (Q92847 whole entry): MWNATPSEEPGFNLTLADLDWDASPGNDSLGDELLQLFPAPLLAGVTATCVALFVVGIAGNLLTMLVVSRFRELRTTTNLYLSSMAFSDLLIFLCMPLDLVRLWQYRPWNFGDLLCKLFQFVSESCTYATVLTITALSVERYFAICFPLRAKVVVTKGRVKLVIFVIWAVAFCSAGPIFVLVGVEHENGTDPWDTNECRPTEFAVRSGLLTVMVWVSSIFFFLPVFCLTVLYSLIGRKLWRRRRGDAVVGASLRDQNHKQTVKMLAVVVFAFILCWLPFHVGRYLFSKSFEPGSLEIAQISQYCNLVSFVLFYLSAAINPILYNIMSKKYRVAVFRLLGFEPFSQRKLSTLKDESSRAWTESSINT
Chain of CD36 (Q07969 whole entry): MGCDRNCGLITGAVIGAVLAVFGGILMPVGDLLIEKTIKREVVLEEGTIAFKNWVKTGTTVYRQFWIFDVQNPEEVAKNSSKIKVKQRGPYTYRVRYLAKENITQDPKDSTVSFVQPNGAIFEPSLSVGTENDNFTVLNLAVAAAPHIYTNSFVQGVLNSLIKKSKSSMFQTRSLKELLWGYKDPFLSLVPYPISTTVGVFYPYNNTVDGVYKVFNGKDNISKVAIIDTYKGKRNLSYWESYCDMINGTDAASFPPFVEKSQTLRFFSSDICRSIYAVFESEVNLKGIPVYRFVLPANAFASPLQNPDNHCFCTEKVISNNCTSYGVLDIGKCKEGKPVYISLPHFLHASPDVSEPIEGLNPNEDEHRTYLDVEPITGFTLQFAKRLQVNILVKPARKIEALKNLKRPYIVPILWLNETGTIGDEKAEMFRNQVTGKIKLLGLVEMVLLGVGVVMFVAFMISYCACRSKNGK

On to `C[C@H](NC(=O)[C@@H](Cc1c[nH]c2ccccc12)NC(=O)CCc1ccccc1)C(=O)NN(Cc1ccc(O)cc1)C(=O)N[C@H](Cc1ccccc1)C(=O)N[C@@H](CCCCN)C(N)=O` [ZS556, Hydrocinnamyl-D-Trp-Ala-AzaTyr-D-Phe-Lys-NH2] (Hydrocinnamoyl-[dW]A[azaTyr][dF]K-NH2), for which the IC50 on CD36 (setting [1]) is 32.5 µM; at human GHS-R1a (setting [2]), more than 10 µM.

For `CC(C)CN(NC(=O)[C@@H](Cc1c[nH]c2ccccc12)NC(=O)[C@@H](N)Cc1cnc[nH]1)C(=O)N[C@@H](C)C(=O)N[C@H](Cc1ccccc1)C(=O)N[C@@H](CCCCN)C(N)=O` [CP-2B (iii), His-D-Trp-azaLeu-Ala-D-Phe-Lys-NH2] (H-H[dW][azaLeu]A[dF]K-NH2), the IC50 at CD36 (setting [1]) was 9.66 µM; on human GHS-R1a (setting [2]), more than 10 µM. The “binding activity/affinity at CD36 in words” value at CD36 (compared with parent peptide GHRP-6 or hexarelin) is reported as “retained significant activity similar to the parent peptide”.

Regarding `C[C@H](N)C(=O)NN(Cc1ccc(O)cc1)C(=O)N[C@@H](C)C(=O)N[C@@H](Cc1c[nH]c2ccccc12)C(=O)N[C@H](Cc1ccccc1)C(=O)N[C@@H](CCCCN)C(N)=O` [CP-1B (iv), Ala-AzaTyr-Ala-Trp-D-Phe-Lys-NH2] (H-A[azaTyr]AW[dF]K-NH2), the values for the IC50 on CD36 (setting [1]) and at human GHS-R1a (setting [2]) were 17.4 µM and more than 10 µM, respectively.

On to `C[C@H](NC(=O)[C@@H](Cc1c[nH]c2ccccc12)NC(=O)[C@@H](N)Cc1cnc[nH]1)C(=O)N[C@H](Cc1ccc(O)cc1)C(=O)N[C@H](Cc1ccccc1)C(=O)N[C@@H](CCCCN)C(N)=O` [DBG253-8, His-D-Trp-Ala-D-Tyr-D-Phe-Lys-NH2] (H-H[dW]A[dY][dF]K-NH2), for which the IC50 at CD36 (setting [3]) came to 12 µM; on human GHS-R1a (setting [4]), 3.25 µM.

As to `C[C@H](NC(=O)[C@@H](Cc1c[nH]c2ccccc12)NC(=O)[C@@H](N)Cc1cnc[nH]1)C(=O)N[C@@H](Cc1c[nH]c2ccccc12)C(=O)N1CCCN1C(=O)N[C@@H](CCCCN)C(N)=O` [CP-AP-2, His-D-Trp-Ala-Trp-AzaPro-Lys-NH2] (H-H[dW]AW[azaPro]K-NH2), the IC50 on CD36 (setting [1]) and at human GHS-R1a (setting [2]) was more than 10 µM in each case.

For `C[C@H](NC(=O)[C@@H](Cc1c[nH]c2ccccc12)NC(=O)[C@@H](N)Cc1cnc[nH]1)C(=O)NN(CC1CCCCC1)C(=O)N[C@H](Cc1ccccc1)C(=O)N[C@@H](CCCCN)C(N)=O` [DBG253-4, His-D-Trp-Ala-azaCha-D-Phe-Lys-NH2] (H-H[dW]A[X1][dF]K-NH2), the IC50 at CD36 (setting [3]) is 2100 µM; on human GHS-R1a (setting [4]), 4.28 µM.

For `C[C@H](NC(=O)[C@@H](Cc1ccccc1)NC(=O)[C@H](Cc1c[nH]c2ccccc12)NC(=O)[C@H](C)NC(=O)N(Cc1ccc(O)cc1)NC(=O)[C@@H](N)Cc1cnc[nH]1)C(N)=O` [CP-1B (i), His-AzaTyr-Ala-Trp-D-Phe-Ala-NH2] (H-H[azaTyr]AW[dF]A-NH2), the IC50 is 72.2 µM on CD36 (setting [1]) and more than 10 µM at human GHS-R1a (setting [2]).

Regarding `CC(C)CN(NC(=O)[C@H](C)NC(=O)[C@@H](Cc1c[nH]c2ccccc12)NC(=O)[C@@H](N)Cc1cnc[nH]1)C(=O)N[C@H](Cc1ccccc1)C(=O)N[C@@H](CCCCN)C(N)=O` [DBG253-2, His-D-Trp-Ala-azaLeu-D-Phe-Lys-NH2] (H-H[dW]A[azaLeu][dF]K-NH2), the results for the half-maximal inhibitory concentration (IC50) at CD36 (setting [3]) and on human GHS-R1a (setting [4]) were 2890 µM and 19.5 µM, respectively.

With `C[C@H](NC(=O)N(Cc1ccccc1)NC(=O)[C@@H](N)Cc1cnc[nH]1)C(=O)N[C@@H](Cc1c[nH]c2ccccc12)C(=O)N[C@H](Cc1ccccc1)C(=O)N[C@@H](CCCCN)C(N)=O` [DBG253-9, His-azaPhe-Ala-Trp-D-Phe-Lys-NH2] (H-H[azaPhe]AW[dF]K-NH2), the half-maximal inhibitory concentration (IC50) turned out to be 72.4 µM at CD36 (setting [3]) and 16.1 µM at human GHS-R1a (setting [4]).

Turning to `C[C@H](NC(=O)N(Cc1ccc(O)cc1)NC(=O)[C@@H](N)Cc1cnc[nH]1)C(=O)N[C@@H](Cc1c[nH]c2ccccc12)C(=O)N[C@H](C)C(=O)N[C@@H](CCCCN)C(N)=O` [CP-1B (ii), His-azaTyr-Ala-Trp-D-Ala-Lys-NH2] (H-H[azaTyr]AW[dA]K-NH2), the IC50 on CD36 (setting [1]) and on human GHS-R1a (setting [2]) was more than 10 µM each time.
